Source: patent publication US9896481B2, “Modified mini-hepcidin peptides and methods of using thereof” (priority 2011, dated 2018)
Non-standard residues stand in square brackets, D forms with d. *: point of attachment. Ida = 2,2'-azanediyldiacetic acid, O=C(O)CNCC(=O)*; Ida(NHPal) = Ida cap bearing a palmityl amide; Dip = N[C@H](C(=O)O)C(c1ccccc1)c1ccccc1; β3hP = O=C(O)C[C@@H]1CCCN1; Ahx = NCCCCCC(=O)O

Legend:
Assay in all cases: Activity at 20 nmoles/mouse: serum iron 4 hours after injection versus solvent (Tables 3 and 4)
Assay type in all cases: in vivo
mouse [1] = test system: mouse; design: key: Y: “Active” means that the injection of the compound resulted in statistically significant (p < 0.05) lowering of serum iron compared to solvent injection when measured 4 hours after administration; Y*: detectable and reproducible activity but at least 50% lower than other active compounds in Table 4; settings: Table 4; intraperitoneal; serum iron 4 h after administration
mouse [2] = test system: mouse; design: key: Y: “Active” means that at 4 hours after injection serum iron in peptide-injected mice decreased statistically significantly (p < 0.05) compared to solvent-injected mice; Y*: Exhibits detectable and reproducible activity at about 50% lower than the most active compounds in Table 3 and 4; settings: Table 3; subcutaneous
mouse [3] = test system: mouse; design: key: Y: “Active” means that at 4 hours after injection serum iron in peptide-injected mice decreased statistically significantly (p < 0.05) compared to solvent-injected mice; Y*: Exhibits detectable and reproducible activity at about 50% lower than the most active compounds in Table 3 and 4; settings: Table 3, intraperitoneal

Row | Compound | Active @ 20 nmoles/mouse IP (mouse [1]) | Active @ 20 nmoles/mouse by SQ (mouse [2]) | Active @ 20 nmoles/mouse IP (mouse [3])
1 | PR82: SEQ ID NO: 101; Ida-T-H-Dpa-bhPro-R-C-R-W-Ahx-Ida(NHPal) (Ida-TH[Dip][β3hP]RCRW-{Ahx-Ida(NHPal)}) | Y |  | 
2 | CCCCCCCCCCCCCCCC(=O)NCCCOCCOCCOCCCNC(=O)COCCOCCOCCNC(=O)C[C@H](Cc1ccccc1)NC(=O)[C@H](CCCNC(=N)N)NC(=O)[C@H](CS)NC(=O)[C@H](CCCNC(=N)N)NC(=O)C[C@@H]1CCCN1C(=O)[C@@H](NC(=O)[C@H](Cc1c[nH]cn1)NC(=O)[C@@H](NC(=O)CNCC(=O)O)[C@@H](C)O)C(c1ccccc1)c1ccccc1 [PR61] |  | Y (also | Y (also
